The text below walks through data of paper PMC2715282 (Phytochemical analysis : PCA, 2009).

This assay addresses 5-HT7 serotonin receptor (Homo sapiens, UniProt P34969). Briefly: competitive radioligand binding versus [3H]LSD. The class given is cell-based.

5-HT7 serotonin receptor, sequence (P34969 whole entry): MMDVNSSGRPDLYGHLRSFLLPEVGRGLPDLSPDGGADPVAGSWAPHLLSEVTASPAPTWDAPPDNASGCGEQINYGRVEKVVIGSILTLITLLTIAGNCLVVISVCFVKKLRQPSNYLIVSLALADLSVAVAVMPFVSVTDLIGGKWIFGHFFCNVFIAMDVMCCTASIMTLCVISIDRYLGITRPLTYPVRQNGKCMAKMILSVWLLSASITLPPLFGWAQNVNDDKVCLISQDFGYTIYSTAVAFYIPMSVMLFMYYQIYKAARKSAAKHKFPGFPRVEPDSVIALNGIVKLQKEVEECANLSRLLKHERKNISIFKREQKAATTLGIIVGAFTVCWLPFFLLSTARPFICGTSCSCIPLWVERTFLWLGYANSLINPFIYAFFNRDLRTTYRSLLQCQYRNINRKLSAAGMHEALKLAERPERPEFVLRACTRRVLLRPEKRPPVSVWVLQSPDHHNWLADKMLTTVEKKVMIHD

What is called IC50 is the concentration that gives 50% inhibition. For the substance cimicifugic acid KK [compound 4], the IC50 stood at 100 µM.
